Each molecule was assayed against human chemokine receptor CXCR7 (Homo sapiens (Human), UniProt P25106) (assay: Tango CXCR7-bla U2OS beta-arrestin recruitment assay (beta-lactamase reporter, FRET), antagonism of CXCL12/SDF1-α). Conditions: antagonistic effect on CXCR7; Tango CXCR7-bla U2OS cells, CXCL12/SDF1-α at its EC80.
Format: cell-based
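Also: compounds preincubated 15 min before CXCL12 addition, then 22 h at 37 °C, FRET emission ratio read with CCF4-AM substrate after 2 h.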

Sequence of human chemokine receptor CXCR7 (P25106 whole entry): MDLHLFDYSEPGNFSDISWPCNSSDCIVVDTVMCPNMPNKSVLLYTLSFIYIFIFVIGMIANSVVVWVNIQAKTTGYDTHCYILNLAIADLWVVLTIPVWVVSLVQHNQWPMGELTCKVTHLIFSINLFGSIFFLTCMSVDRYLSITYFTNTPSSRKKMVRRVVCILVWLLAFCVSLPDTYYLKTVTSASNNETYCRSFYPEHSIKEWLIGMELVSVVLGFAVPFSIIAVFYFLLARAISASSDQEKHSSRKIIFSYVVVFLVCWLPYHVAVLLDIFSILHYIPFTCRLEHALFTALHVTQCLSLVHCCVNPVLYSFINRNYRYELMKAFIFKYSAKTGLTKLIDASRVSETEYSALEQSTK

Going from O=C(N[C@@H]1CCN(CC2CC2)C[C@H]1C(=O)NC1(c2ccc(F)cn2)CC1)c1cc(-c2c(F)cc(F)cc2F)on1 (racemic) [Example 1.144, rac-(3R*,4R*)-1-Cyclopropylmethyl-4-{[5-(2,4,6-trifluoro-phenyl)-isoxazole-3-carbonyl]-amino}-piperidine-3-carboxylic acid [1-(5-fluoro-pyridin-2-yl)-cyclopropyl]-amide] to O=C(N[C@@H]1CCN(CC2CC2)C[C@H]1C(=O)NC1(c2ccccn2)CC1)c1cc(-c2c(F)cc(F)cc2F)on1 (racemic) [Example 1.171, rac-(3R*,4R*)-1-Cyclopropylmethyl-4-{[5-(2,4,6-trifluoro-phenyl)-isoxazole-3-carbonyl]-amino}-piperidine-3-carboxylic acid (1-pyridin-2-yl-cyclopropyl)-amide], the IC50 falls from 0.178 µM to 0.016 µM (11-fold).

First: CN(C)C(=O)[C@@H]1CN(CC2CC2)CC[C@H]1NC(=O)c1cc(-c2ccc(F)cc2F)no1 (racemic) [Example 1.149, rac-(3R*,4R*)-1-Cyclopropylmethyl-4-{[3-(2,4-difluoro-phenyl)-isoxazole-5-carbonyl]-amino}-piperidine-3-carboxylic acid dimethylamide]
Second: COCC(C)(C)NC(=O)[C@@H]1CN(CC2CC2)CC[C@H]1NC(=O)c1cc(-c2ccc(F)cc2F)no1 (racemic) [Example 1.151, rac-(3R*,4R*)-1-Cyclopropylmethyl-4-{[3-(2,4-difluoro-phenyl)-isoxazole-5-carbonyl]-amino}-piperidine-3-carboxylic acid (2-methoxy-1,1-dimethyl-ethyl)-amide]
The IC50 of the first is 2-fold lower: 0.276 µM for the first, 0.554 µM for the second. The first is the more potent here.

COCC(C)(C)NC(=O)[C@@H]1CN(C2CCCCC2)CC[C@H]1NC(=O)c1noc(-c2ccc(F)cc2F)n1 (racemic) [Example 1.152, rac-(3R*,4R*)-1-Cyclohexyl-4-{[5-(2,4-difluoro-phenyl)-[1,2,4]oxadiazole-3-carbonyl]-amino}-piperidine-3-carboxylic acid (2-methoxy-1,1-dimethyl-ethyl)-amide] and COCC(C)(C)NC(=O)[C@@H]1CN(CC2CC2)CC[C@H]1NC(=O)c1noc(-c2ccc(F)cc2F)n1 (racemic) [Example 1.153, rac-(3R*,4R*)-1-Cyclopropylmethyl-4-{[5-(2,4-difluoro-phenyl)-[1,2,4]oxadiazole-3-carbonyl]-amino}-piperidine-3-carboxylic acid (2-methoxy-1,1-dimethyl-ethyl)-amide] are within 1.5-fold of each other in IC50: 0.569 µM for the first, 0.803 µM for the second.

Compared with O=C(N[C@@H]1CCN(CC2CC2)C[C@H]1C(=O)NC1(c2ccc(F)cn2)CC1)c1cc(-c2ccc(F)cc2F)no1 (racemic) [Example 1.163, rac-(3R*,4R*)-1-Cyclopropylmethyl-4-{[3-(2,4-difluoro-phenyl)-isoxazole-5-carbonyl]-amino}-piperidine-3-carboxylic acid [1-(5-fluoro-pyridin-2-yl)-cyclopropyl]-amide], O=C(N[C@@H]1CCN(CC2CC2)C[C@H]1C(=O)NC1(c2ccccn2)CC1)c1cc(-c2ccc(F)cc2F)no1 (racemic) [Example 1.174, rac-(3R*,4R*)-1-Cyclopropylmethyl-4-{[3-(2,4-difluoro-phenyl)-isoxazole-5-carbonyl]-amino}-piperidine-3-carboxylic acid (1-pyridin-2-yl-cyclopropyl)-amide] is 26-fold lower in IC50: 0.953 µM for the first, 0.036 µM for the second.

Compared with O=C(N[C@@H]1CCN(C2CCCCC2)C[C@H]1C(=O)NC1(c2ccccn2)CC1)c1cn(-c2ccc(F)cc2F)nn1 (racemic) [Example 1.165, rac-(3R*,4R*)-1-Cyclohexyl-4-{[1-(2,4-difluoro-phenyl)-1H-[1,2,3]triazole-4-carbonyl]-amino}-piperidine-3-carboxylic acid (1-pyridin-2-yl-cyclopropyl)-amide], O=C(N[C@@H]1CCN(C2CCCC2)C[C@H]1C(=O)NC1(c2ccccn2)CC1)c1cn(-c2ccc(F)cc2F)nn1 (racemic) [Example 1.166, rac-(3R*,4R*)-1-Cyclopentyl-4-{[1-(2,4-difluoro-phenyl)-1H-[1,2,3]triazole-4-carbonyl]-amino}-piperidine-3-carboxylic acid (1-pyridin-2-yl-cyclopropyl)-amide] is 1.8-fold lower in IC50: 0.092 µM for the first, 0.052 µM for the second. The second is the more potent here.

Compared with O=C(N[C@@H]1CCN(CC2CC2)C[C@H]1C(=O)NC1(c2ccccn2)CC1)c1cn(-c2ccc(F)cc2F)nn1 (racemic) [Example 1.167, rac-(3R*,4R*)-1-Cyclopropylmethyl-4-{[1-(2,4-difluoro-phenyl)-1H-[1,2,3]triazole-4-carbonyl]-amino}-piperidine-3-carboxylic acid (1-pyridin-2-yl-cyclopropyl)-amide], O=C(N[C@@H]1CCN(CC2CC2)C[C@H]1C(=O)NC1(c2ccccn2)CCC1)c1cc(-c2ccc(F)cc2F)on1 (racemic) [Example 1.197, rac-(3R*,4R*)-1-Cyclopropylmethyl-4-{[5-(2,4-difluoro-phenyl)-isoxazole-3-carbonyl]-amino}-piperidine-3-carboxylic acid (1-pyridin-2-yl-cyclobutyl)-amide] is 12-fold lower in IC50: 0.134 µM for the first, 0.011 µM for the second.

O=C(N[C@@H]1CCN(C2CCCCC2)C[C@H]1C(=O)NC1(c2ccccn2)CC1)c1cc(-c2c(F)cc(F)cc2F)on1 (racemic) [Example 1.169, rac-(3R*,4R*)-1-Cyclohexyl-4-{[5-(2,4,6-trifluoro-phenyl)-isoxazole-3-carbonyl]-amino}-piperidine-3-carboxylic acid (1-pyridin-2-yl-cyclopropyl)-amide] and O=C(N[C@@H]1CCN(C2CCCC2)C[C@H]1C(=O)NC1(c2ncccn2)CC1)c1cc(-c2c(F)cc(F)cc2F)on1 (racemic) [Example 1.176, rac-(3R*,4R*)-1-Cyclopentyl-4-{[5-(2,4,6-trifluoro-phenyl)-isoxazole-3-carbonyl]-amino}-piperidine-3-carboxylic acid (1-pyrimidin-2-yl-cyclopropyl)-amide] are within 1.5-fold of each other in IC50: 0.005 µM for the first, 0.006 µM for the second.

O=C(N[C@@H]1CCN(C2CCCC2)C[C@H]1C(=O)NC1(c2ccccn2)CC1)c1cc(-c2ccc(F)cc2F)no1 (racemic) [Example 1.173, rac-(3R*,4R*)-1-Cyclopentyl-4-{[3-(2,4-difluoro-phenyl)-isoxazole-5-carbonyl]-amino}-piperidine-3-carboxylic acid (1-pyridin-2-yl-cyclopropyl)-amide] and CC(C)(C#N)NC(=O)[C@@H]1CN(C2CCCCC2)CC[C@H]1NC(=O)c1cc(-c2ccc(F)cc2F)on1 (racemic) [Example 1.183, rac-(3R*,4R*)-1-Cyclohexyl-4-{[5-(2,4-difluoro-phenyl)-isoxazole-3-carbonyl]-amino}-piperidine-3-carboxylic acid (cyano-dimethyl-methyl)-amide] are within 1.5-fold of each other in IC50: 0.11 µM for the first, 0.079 µM for the second.

First: O=C(N[C@@H]1CCN(CC2CC2)C[C@H]1C(=O)NC1(c2ncccn2)CC1)c1cc(-c2c(F)cc(F)cc2F)on1 (racemic) [Example 1.177, rac-(3R*,4R*)-1-Cyclopropylmethyl-4-{[5-(2,4,6-trifluoro-phenyl)-isoxazole-3-carbonyl]-amino}-piperidine-3-carboxylic acid (1-pyrimidin-2-yl-cyclopropyl)-amide]
Second: O=C(N[C@@H]1CCN(CC2CC2)C[C@H]1C(=O)NC1(c2ncccn2)CC1)c1cc(-c2c(F)cccc2F)on1 (racemic) [Example 1.191, rac-(3R*,4R*)-1-Cyclopropylmethyl-4-{[5-(2,6-difluoro-phenyl)-isoxazole-3-carbonyl]-amino}-piperidine-3-carboxylic acid (1-pyrimidin-2-yl-cyclopropyl)-amide]
The IC50 of the first is 37-fold lower: 0.005 µM for the first, 0.186 µM for the second. The first is the more potent here.

Going from O=C(N[C@@H]1CCN(CC2CC2)C[C@H]1C(=O)NC1(c2ncccn2)CC1)c1cc(-c2ccc(Cl)cc2Cl)on1 (racemic) [Example 1.189, rac-(3R*,4R*)-1-Cyclopropylmethyl-4-{[5-(2,4-dichloro-phenyl)-isoxazole-3-carbonyl]-amino}-piperidine-3-carboxylic acid (1-pyrimidin-2-yl-cyclopropyl)-amide] to COc1ccc(-c2cc(C(=O)N[C@@H]3CCN(CC4CC4)C[C@H]3C(=O)NC3(c4ncccn4)CC3)no2)c(F)c1 (racemic) [Example 1.195, rac-(3R*,4R*)-1-Cyclopropylmethyl-4-{[5-(2-fluoro-4-methoxy-phenyl)-isoxazole-3-carbonyl]-amino}-piperidine-3-carboxylic acid (1-pyrimidin-2-yl-cyclopropyl)-amide], the IC50 rises from 0.036 µM to 0.759 µM (21-fold). The first is the more potent here.

First: O=C(N[C@@H]1CCN(CC2CC2)C[C@H]1C(=O)NC1(c2ncccn2)CC1)c1cc(-c2ccc(C(F)(F)F)cc2)on1 (racemic) [Example 1.192, rac-(3R*,4R*)-1-Cyclopropylmethyl-4-{[5-(4-trifluoromethyl-phenyl)-isoxazole-3-carbonyl]-amino}-piperidine-3-carboxylic acid (1-pyrimidin-2-yl-cyclopropyl)-amide]
Second: O=C(N[C@@H]1CCN(CC2CC2)C[C@H]1C(=O)NC1(c2ncccn2)CC1)c1cc(-c2cccc(C(F)(F)F)c2)on1 (racemic) [Example 1.193, rac-(3R*,4R*)-1-Cyclopropylmethyl-4-{[5-(3-trifluoromethyl-phenyl)-isoxazole-3-carbonyl]-amino}-piperidine-3-carboxylic acid (1-pyrimidin-2-yl-cyclopropyl)-amide]
The IC50 of the first is 2-fold higher: 0.389 µM for the first, 0.191 µM for the second.

First: O=C(N[C@@H]1CCN(CC2CC2)C[C@H]1C(=O)NC1(c2ncccn2)CC1)c1cc(-c2ccc(F)cn2)on1 (racemic) [Example 1.196, rac-(3R*,4R*)-1-Cyclopropylmethyl-4-{[5-(5-fluoro-pyridin-2-yl)-isoxazole-3-carbonyl]-amino}-piperidine-3-carboxylic acid (1-pyrimidin-2-yl-cyclopropyl)-amide]
Second: COc1ccccc1C1(NC(=O)[C@@H]2CN(CC3CC3)CC[C@H]2NC(=O)c2cc(-c3ccc(F)cc3F)on2)CC1 (racemic) [Example 1.198, rac-(3R*,4R*)-1-Cyclopropylmethyl-4-{[5-(2,4-difluoro-phenyl)-isoxazole-3-carbonyl]-amino}-piperidine-3-carboxylic acid [1-(2-methoxy-phenyl)-cyclopropyl]-amide]
The IC50 of the first is 11-fold higher: 0.575 µM for the first, 0.052 µM for the second.

From patent US11306078B2, “Piperidine CXCR7 receptor modulators” (IDORSIA PHARMACEUTICALS LTD., priority 2016, dated 2022)
